From patent US10197583B2, “Hydroxycholesterol immunoassay” (ENZO LIFE SCIENCES, INC. C/O ENZO BIOCHEM, INC., priority 2010, dated 2019)

What was measured:
[1] = system: rabbit antisera to 24S-hydroxycholesterol (Day 77, rabbit #71); assay: Cross-reactivity in competitive 24HC enzyme immunoassay, antiserum of rabbit #71; assay type: binding; conditions: Table 3; antiserum Day 77, rabbit #71
Protocol: (§1) 24HC Enzyme Immunoassay Protocol
(§2) 1. Known concentrations of 24HC were prepared in 100 mM phosphate, 150 mM NaCl, 1% BSA, pH 7.2 assay buffer containing biotinylated […] (described above) and added to wells of a 96 well microtiter plate that were coated with a goat anti-rabbit IgG antibody. Rabbit polyclonal antibody to 24HC was diluted to a limiting concentration in 100 mM Tris, 150 mM NaCl, 1% BSA buffer and 100 μL was added to each well. The plate was incubated at room temperature for 1 hour with orbital shaking. During this incubation the anti-24HC antibody binds to the goat anti-rabbit IgG antibody on the plate. Also, the 24HC standard competes with the biotinylated 24HC for anti-24HC antibody binding sites. Thus, with more 24HC standard, less biotinylated 24HC binds to the antibody binding sites on the plate.
(§3) 2. Following this incubation, the plate was washed 4 times with 300 μL of 50 mM Tris, 100 mM NaCl, 0.05% Tween-20 buffer. After washing, bound 24HC or bound biotinylated 24HC is bound to the binding sites on the anti-24HC antibodies.
(§4) 3. Streptavidin conjugated to HRP (200 μL), diluted in 100 mM phosphate, 150 mM NaCl, 1% BSA, pH 7.2 assay buffer, was then added to each well to allow detection of the biotinylated 24HC. The plate was then incubated at room temperature for 30 minutes.
(§5) 4. The plate was then washed 4 times with 300 μL of 50 mM Tris, 100 mM NaCl, 0.05% Tween-20 buffer to remove excess streptavidin-HRP conjugate. TMB substrate solution (200 μL) is added to each well. The plates were incubated at room temperature for 30 min.
(§6) 5. After color development, 50 μL of 1N HCl stop solution is added to each well to stop the substrate reaction. The resulting yellow color was read at 450 nm. […]. The intensity of yellow color is inversely proportional to the concentration of 24HC that was added to the well.
(§7) Cross-reactivities of antisera taken from another rabbit at Day 77 (rabbit #71), subjected to the same immunization protocol, as well as a repeat of the rabbit #72 antisera, were also determined.

[2] = system: rabbit antisera to 24S-hydroxycholesterol (Day 77 bleed, rabbit #72); assay: Cross-reactivity in competitive 24HC enzyme immunoassay, antiserum of rabbit #72; assay type: binding; conditions: for Bleed #72 % Cross reactivity: Table 3, repeat of the rabbit #72 antisera; for % Cross reactivity: Table 2, antiserum Day 77 bleed, rabbit #72, relative to 24HC
Protocol: as §1, §2, §3, §4, §5, §6
The multiple regression line shown therein has an R^2 of 0.996. The detectable range for 24HC for this assay is as shown is 1.56-100 ng/mL. The total assay time is 2 h.
Cross-reactivity of the antisera tested above (Day 77 bleed, rabbit #72) to the following structurally similar molecules was determined:
as §7

Compound: C[C@@H](CO)CCC[C@@H](C)[C@H]1CC[C@H]2[C@@H]3CC=C4C[C@@H](O)CC[C@]4(C)[C@H]3CC[C@]12C [27-Hydroxycholesterol]
- Bleed #71 % Cross reactivity [1]: 0.022%
- Bleed #72 % Cross reactivity [2]: <0.001%

Compound: C[C@H](CCCC(C)(C)O)[C@H]1CC[C@H]2[C@@H]3CC=C4C[C@@H](O)CC[C@]4(C)[C@H]3CC[C@]12C [25-Hydroxycholesterol]
- Bleed #71 % Cross reactivity [1]: 0.19%
- Bleed #72 % Cross reactivity [2]: 0.725%

Compound: C[C@]12CC[C@H](O)CC1=CC[C@@H]1[C@@H]2CC[C@]2(C)C(=O)CC[C@@H]12 [DHEA]
- Bleed #71 % Cross reactivity [1]: 0.015%
- % Cross reactivity [2]: 0.05%
- Bleed #72 % Cross reactivity [2]: 0.018%

Compound: CC(C)CC[C@@H](O)[C@@H](C)[C@H]1CC[C@H]2[C@@H]3CC=C4CC(O)CC[C@]4(C)[C@H]3CC[C@]12C (stereo in doubt) [22-Hydroxycholesterol]
- Bleed #71 % Cross reactivity [1]: 0.020%
- % Cross reactivity [2]: 0.15%
- Bleed #72 % Cross reactivity [2]: 0.11%

Compound: CC(C)CCC[C@@H](C)[C@H]1CC[C@H]2[C@@H]3CC=C4C[C@@H](O)CC[C@]4(C)[C@H]3CC[C@]12C [Cholesterol]
- Bleed #71 % Cross reactivity [1]: 0.002%
- % Cross reactivity [2]: <0.001%
- Bleed #72 % Cross reactivity [2]: 0.003%
